Laboratory results: patent US9987368B2, “Pharmaceutical composition comprising polypeptide” (SANTEN PHARMACEUTICAL CO., LTD., priority 2015, dated 2018)

How the values were obtained:
[1] = test system: VEGF-induced HUVEC proliferation; settings: US 2007/0149574; cited from earlier work
[2] = test system: choroidal neovascularization models in rats; settings: US 2007/0149574; cited from earlier work
[3] = Dissolution performance evaluation test; assay type: physicochemical; settings: for Property: visually checked
Experimental: Drug dissolving abilities of various solutions were examined.
The compound represented by the above formula (2) (2-[[[2-[(hydroxyacetyl)amino]-4-pyridinyl]methyl]thio]-N-[4-(trifluoromethoxy)phenyl]-3-pyridinecarboxamide, hereinafter also referred to as the drug A; prepared in accordance with the method described in the specification of US Patent Application Publication No. 2007/0149574) was added to each solvent (total 1 mL) out of various solvents of DMSO (GAYLORD), PEG 400 (Nacalai Tesque), and water, and was stirred at room temperature (25° C.) overnight (for 8 hours). Then, the properties of the resultant solvents were visually checked.

[4] = test system: adjuvant arthritis models in rats; settings: US 2007/0149574; cited from earlier work
cancer models in mice = settings: US 2007/0149574; cited from earlier work
[5] = Depot formation evaluation test (1): gelatinizers in DMSO/water; assay type: physicochemical; settings: solution of DMSO/water at the volume ratio (9:1)
Experimental: Depot (deposited mass) formations of various kinds of gelatinizers were examined.
Compositions 1 to 6 were prepared by blending each of various kinds of gelatinizers to a solvent of DMSO/water (volume ratio of 9:1) such that the gelatinizer is contained at 0.1% (w/v) (0.1% by mass of the gelatinizer is contained per 100 mL of the solution of DMSO/water). Then, calcium chloride dihydrate and magnesium chloride hexahydrate were dissolved in Dulbecco's phosphate buffered saline (−) (Product No. D-5652 manufactured by Sigma-Aldrich) to prepare Dulbecco's phosphate buffered saline (+). 0.005 mL of each of the compositions was added to 1 mL of the Dulbecco's phosphate buffered saline (+), and the formation of a depot was visually checked. The formation of a depot was evaluated in such a way that the depot is determined as formed if a mass formed of the composition deposited is observed.

[6] = Depot formation evaluation test (2): solvents of the polypeptide A; assay type: physicochemical
Experimental: Solvents of the polypeptide A were examined.
Compositions 2 to 6 and Comparative Examples 6 and 7 were prepared by adding 0.01 mL of an aqueous solution of the polypeptide A at 1% (w/v) (containing 1% by mass of the polypeptide A per 100 mL of water) to 0.09 mL of each of various solvents, followed by stirring. 0.005 mL of each of the compositions was administered to 1 mL of the Dulbecco's phosphate buffered saline (+), and the formation of a depot was visually checked.

Property ([3]; Test 1: Drug A 20 mg in DMSO 0.9 mL + water 0.1 mL, stirred at room temperature (25° C.) overnight)	Property ([3]; Test 2: Drug A 60 mg in DMSO 0.9 mL + water 0.1 mL, stirred at 25° C. overnight)	Property ([3]; Test 3: Drug A 60 mg in water 1 mL, stirred at 25° C. overnight)	Property ([3]; Test 4: Drug A 25 mg in PEG 400 1 mL, stirred at 25° C. overnight)	Property ([3]; Test 5: Drug A 25 mg in PEG 400 0.9 mL + water 0.1 mL, stirred at 25° C. overnight)	Property ([3]; Test 6: Drug A 25 mg in PEG 400 0.8 mL + water 0.2 mL, stirred at 25° C. overnight)	Property ([3]; Test 7: Drug A 25 mg in water 1 mL, stirred at 25° C. overnight)	Dissolution of the drug in solution containing DMSO or PEG 400 ([3]; solution containing DMSO or PEG 400)	Dissolution of the drug in water ([3]; water)	Molecule	cell proliferation inhibitory action [1]	choroidal neovascularization inhibitory action [2]	paw edema inhibitory action [4]	tumor growth inhibitory action (cancer models in mice)	Depot formation [5]	Depot formation ([6]; DMSO, PEG 200, PEG 400, glycofurol and N-methylpyrrolidone used as the solvents)	Depot formation ([6]; ethanol and N,N-dimethylacetamide used as the solvents)
Solution	Solution	Suspension	Solution	Solution	Solution	Suspension	can dissolve the drug	cannot be dissolved in water	O=C(CO)Nc1cc(CSc2ncccc2C(=O)Nc2ccc(OC(F)(F)F)cc2)ccn1 [Drug A, 2-[[[2-[(hydroxyacetyl)amino]-4-pyridinyl]methyl]thio]-N-[4-(trifluoromethoxy)phenyl]-3-pyridinecarboxamide]	demonstrated a cell proliferation inhibitory action	demonstrated a choroidal neovascularization inhibitory action	demonstrated a paw edema inhibitory action	demonstrated a tumor growth inhibitory action	–	–	–
–	–	–	–	–	–	–	–	–	Ac-(Arg-Ala-Asp-Ala)4-NH2 [polypeptide A]	–	–	–	–	formed a depot	formed a depot	did not form a depot
